Assay results: patent USRE39616E1, “Aminoindan derivatives” (priority 1996, dated 2007)

Key:
[1] = biological target: T1, Human erythrocyte acetylcholinesterase (Homo sapiens, UniProt P22303); experiment: biochemical; type: biochemical; conditions: AChE Inhibition In vitro IC50
T1 construct: Human erythrocyte acetylcholinesterase (type XIII, Sigma Israel); purchased Sigma Israel type XIII; host or cells: human erythrocytes
Description: Human erythrocyte acetylcholinesterase (type XIII, Sigma Israel), was prepared in a stock solution of 1 U/ml, containing Triton (1%) and bovine serum albumin (0.05%) in phosphate buffer (pH 8). The enzyme (0.05U) was incubated with 3-5 different concentrations of test compound (in triplicate) for periods of from 15 to 60 minutes at 37° C. […] The percentage inhibition of AChE by each concentration of drug is calculated by comparison with that of enzyme in the absence of drug.

MAO-A [2] = biological target: T2, MAO-A (Mus musculus, UniProt Q64133); experiment: Inhibition of MAO activity ex vivo (brain); type: in vivo, mice; conditions: mice, brain tissue
T2 construct: from tissue; host or cells: mouse brain
T2 sequence (Q64133 1-526): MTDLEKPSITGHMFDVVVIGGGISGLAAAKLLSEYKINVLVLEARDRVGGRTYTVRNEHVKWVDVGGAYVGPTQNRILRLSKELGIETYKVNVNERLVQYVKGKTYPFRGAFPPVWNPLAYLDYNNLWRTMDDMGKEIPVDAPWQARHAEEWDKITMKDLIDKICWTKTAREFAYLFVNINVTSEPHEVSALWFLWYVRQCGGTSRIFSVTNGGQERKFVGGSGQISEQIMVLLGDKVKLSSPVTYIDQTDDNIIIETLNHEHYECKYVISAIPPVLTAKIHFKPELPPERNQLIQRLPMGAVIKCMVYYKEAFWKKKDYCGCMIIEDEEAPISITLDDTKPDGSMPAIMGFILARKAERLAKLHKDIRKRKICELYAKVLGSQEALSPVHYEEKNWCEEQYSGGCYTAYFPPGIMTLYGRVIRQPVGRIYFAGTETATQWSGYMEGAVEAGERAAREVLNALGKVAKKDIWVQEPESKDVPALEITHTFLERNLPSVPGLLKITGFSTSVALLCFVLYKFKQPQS
Description: (§1) Substrate concentrations used were 50 μM (PEA) and 1 mM (5-HT).
(§2) Male Sabra mice, weighing 45-50 g were injected with test compound solutions (prepared in 0.9% saline). Each dose was administered to two or three mice. The mice were sacrificed two hours after drug administration or at a time corresponding to the peak AChE inhibition time (see Table 11). The brain and liver were rapidly dissected and stored in appropriate vials on ice. The tissues were weighed, diluted to ½ in sucrose 0.3M and stored at −20° C. before performance of the MAO assay described above. The results given in Table 11 relate to measurements made on brain tissue only.

MAO-B [3] = biological target: T3, MAO-B (Mus musculus, UniProt Q8BW75); experiment: Inhibition of MAO activity ex vivo (brain); type: in vivo, mice; conditions: mice, brain tissue
T3 construct: from tissue; host or cells: mouse brain
T3 sequence (Q8BW75 1-520): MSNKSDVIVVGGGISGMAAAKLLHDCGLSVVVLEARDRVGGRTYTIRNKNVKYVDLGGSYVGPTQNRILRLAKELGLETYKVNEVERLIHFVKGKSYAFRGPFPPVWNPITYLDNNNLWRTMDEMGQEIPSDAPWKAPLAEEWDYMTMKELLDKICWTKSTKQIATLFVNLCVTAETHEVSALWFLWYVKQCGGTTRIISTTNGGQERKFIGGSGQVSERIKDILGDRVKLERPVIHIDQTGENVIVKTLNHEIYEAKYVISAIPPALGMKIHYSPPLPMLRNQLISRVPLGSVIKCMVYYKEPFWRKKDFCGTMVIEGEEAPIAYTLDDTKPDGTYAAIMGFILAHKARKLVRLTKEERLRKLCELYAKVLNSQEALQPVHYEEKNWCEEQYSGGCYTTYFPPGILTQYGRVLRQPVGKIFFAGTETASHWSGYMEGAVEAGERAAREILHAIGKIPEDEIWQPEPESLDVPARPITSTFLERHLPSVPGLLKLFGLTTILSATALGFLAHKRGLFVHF
Description: as §1, §2

whole brain AChE = biological target: T4, whole brain AChE (Mus musculus, UniProt P21836); conditions: for AChE Inhibition Ex vivo ED50 (AC): mice, whole brain, at peak of activity
T4 sequence (P21836 32-614): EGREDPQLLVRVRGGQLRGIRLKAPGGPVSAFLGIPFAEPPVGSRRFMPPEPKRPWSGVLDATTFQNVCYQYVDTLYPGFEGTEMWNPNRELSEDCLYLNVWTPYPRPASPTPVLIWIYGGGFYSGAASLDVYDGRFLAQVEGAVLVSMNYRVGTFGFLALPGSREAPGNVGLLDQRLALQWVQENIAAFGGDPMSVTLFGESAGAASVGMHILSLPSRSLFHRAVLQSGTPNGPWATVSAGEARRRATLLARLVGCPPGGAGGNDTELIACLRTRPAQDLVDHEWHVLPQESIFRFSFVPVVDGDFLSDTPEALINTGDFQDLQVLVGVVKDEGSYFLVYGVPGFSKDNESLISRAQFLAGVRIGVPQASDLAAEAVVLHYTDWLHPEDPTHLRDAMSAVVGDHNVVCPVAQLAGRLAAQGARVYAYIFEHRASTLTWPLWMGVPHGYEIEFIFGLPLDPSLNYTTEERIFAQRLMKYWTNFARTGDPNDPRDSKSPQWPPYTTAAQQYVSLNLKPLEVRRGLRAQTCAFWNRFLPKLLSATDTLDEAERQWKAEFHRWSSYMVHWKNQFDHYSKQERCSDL
Description: Test drugs or saline were administered sub-cutaneously to male mice (Sabra strain, 28-35 g). […] The mice were sacrificed 15, 30, 50, 70, 90, 120 or 180 minutes after drug administration, the brains rapidly removed (minus cerebellum), weighed and homogenized in 0.1 M phosphate buffer, pH 8.0, containing Triton (1 mg/100 g tissue) and centrifuged to remove cell debris. Aliquots (25 μl) of the supernatant were then incubated with acetylthiocholine and DTNB. AChE activity was measured as described above. The % inhibition of whole brain AChE by each dose of drug was calculated by comparison with enzyme activity from 3 saline treated control mice run at the same time.

mice = conditions: mouse, in vivo
Description: Therapeutic Ratio was calculated as LD50 divided by ED50 of ex vivo acetylcholine esterase inhibition.

MAO-A [4] = biological target: T5, MAO-A (Rattus norvegicus, UniProt P21396); experiment: Inhibition of MAO activity in vitro, 5-HT as substrate; type: biochemical; design: The MAO enzyme source was a homogenate of rat brain in 0.3M sucrose; from tissue; host or cells: rat brain homogenate, 600 g supernatant; conditions: MAO-A Inhibition In vitro IC50, rat brain homogenate, 5-HT substrate
T5 sequence (P21396 1-526): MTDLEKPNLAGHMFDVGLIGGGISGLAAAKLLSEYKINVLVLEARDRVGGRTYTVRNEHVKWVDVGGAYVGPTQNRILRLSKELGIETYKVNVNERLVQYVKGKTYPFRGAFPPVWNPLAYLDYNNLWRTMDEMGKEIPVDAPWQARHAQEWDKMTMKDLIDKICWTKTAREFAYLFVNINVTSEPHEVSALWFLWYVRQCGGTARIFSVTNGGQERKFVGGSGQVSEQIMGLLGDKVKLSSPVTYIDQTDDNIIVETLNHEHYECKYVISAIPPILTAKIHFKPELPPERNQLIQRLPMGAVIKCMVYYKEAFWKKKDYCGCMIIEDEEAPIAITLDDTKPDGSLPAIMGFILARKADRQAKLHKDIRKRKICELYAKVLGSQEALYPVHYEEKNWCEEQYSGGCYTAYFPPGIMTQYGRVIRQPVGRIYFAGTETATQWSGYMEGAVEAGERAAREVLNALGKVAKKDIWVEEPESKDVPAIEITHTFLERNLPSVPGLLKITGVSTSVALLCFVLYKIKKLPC
Description: as §1

MAO-B [5] = biological target: T6, MAO-B (Rattus norvegicus, UniProt P19643); experiment: Inhibition of MAO activity in vitro, PEA as substrate; type: biochemical; design: The MAO enzyme source was a homogenate of rat brain in 0.3M sucrose; from tissue; host or cells: rat brain homogenate, 600 g supernatant; conditions: MAO-B Inhibition In vitro IC50, rat brain homogenate
T6 sequence (P19643 1-520): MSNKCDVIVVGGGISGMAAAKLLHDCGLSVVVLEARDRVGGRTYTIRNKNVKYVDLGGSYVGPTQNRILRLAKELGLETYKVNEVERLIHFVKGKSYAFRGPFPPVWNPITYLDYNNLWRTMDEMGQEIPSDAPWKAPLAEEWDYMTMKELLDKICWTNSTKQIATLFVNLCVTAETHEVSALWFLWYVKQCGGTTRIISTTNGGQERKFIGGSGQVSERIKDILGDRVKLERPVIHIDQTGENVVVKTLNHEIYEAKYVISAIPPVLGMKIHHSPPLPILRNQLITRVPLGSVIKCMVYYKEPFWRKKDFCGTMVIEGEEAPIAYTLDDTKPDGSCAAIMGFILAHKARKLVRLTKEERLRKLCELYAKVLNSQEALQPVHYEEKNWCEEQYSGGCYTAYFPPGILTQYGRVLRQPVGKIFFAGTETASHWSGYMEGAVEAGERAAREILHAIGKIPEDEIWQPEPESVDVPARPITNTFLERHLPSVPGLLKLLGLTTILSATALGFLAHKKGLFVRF
Description: as §1

T1 sequence (P22303 32-617 isoform P22303-2 limits assumed): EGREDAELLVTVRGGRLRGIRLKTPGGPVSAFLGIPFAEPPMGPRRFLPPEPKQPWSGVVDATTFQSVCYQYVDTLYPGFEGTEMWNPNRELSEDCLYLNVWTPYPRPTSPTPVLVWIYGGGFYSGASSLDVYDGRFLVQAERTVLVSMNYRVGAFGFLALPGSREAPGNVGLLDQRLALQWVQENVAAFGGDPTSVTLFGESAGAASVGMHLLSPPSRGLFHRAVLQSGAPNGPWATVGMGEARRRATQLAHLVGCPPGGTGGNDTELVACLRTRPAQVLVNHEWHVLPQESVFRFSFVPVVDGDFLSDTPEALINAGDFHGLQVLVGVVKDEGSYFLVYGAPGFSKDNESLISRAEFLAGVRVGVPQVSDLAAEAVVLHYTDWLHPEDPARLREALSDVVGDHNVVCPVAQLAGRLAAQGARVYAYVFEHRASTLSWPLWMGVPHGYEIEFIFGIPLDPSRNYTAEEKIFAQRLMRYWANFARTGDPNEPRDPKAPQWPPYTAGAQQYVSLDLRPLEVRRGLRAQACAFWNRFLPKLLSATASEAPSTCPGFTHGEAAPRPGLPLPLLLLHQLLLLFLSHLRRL

SMILES | IC50 [1] [µM] | MAO-A Inhibition Ex vivo ED50 (MAO-A [2]) | MAO-B Inhibition Ex vivo ED50 (MAO-B [3]) | AChE Inhibition Ex vivo ED50 (AC) (whole brain AChE) [µmol/kg] | AChE Inhibition Time to peak activity t (whole brain AChE; mouse, in vivo) [min] | Acute Toxicity LD50 (LD) (mice) [µmol/kg] | Therapeutic Ratio LD/AC (mice) | IC50 (MAO-A [4]) [µM] | IC50 (MAO-B [5]) [µM]
C#CCN(C)C1CCc2cccc(OC(=O)N(C)C)c21 (stereo not shown) [Compound 32] | 3.7 | >>20 μmoles/kg | >>20 μmoles/kg | 7.8 | 15 | 68 | 9.0 | 190 | 500
C#CCNC1CCc2ccc(OC(=O)N(C)CCCCCC)cc21 (stereo not shown) [Compound 36] | 15 | >100 µmol/kg | >100 µmol/kg | >400 |  | >1000 |  | > 1000 | > 1000
